Results: patent US6949522B2, “β-2′- or 3′-halonucleosides” (Pharmasset, Inc., priority 2001, dated 2005)
Like-named read-outs stand apart in the source and are kept apart here.

Tests used:
[1] = system: HIV-1M184V; assay: Antiviral activity against lamivudine-resistant (HIV-1M184V) mutant strain in human PBM cells; format: cell-based; conditions: for EC90: read-out: M184V (EC90)
Excerpt: Human peripheral blood mononuclear (PBM) cells (obtained from Atlanta Red Cross) were isolated by Ficoll-Hypaque discontinuous gradient centrifugation from healthy seronegative donors. Cells were stimulated with phytohemagglutinin A (Difco, Sparks, Md.) for 2-3 days prior to use. HIV-1LAI obtained from the Centers for Disease Control and Prevention (Atlanta, Ga.) was used as the standard reference virus for the antiviral assays. The molecular infetious clones HIV-1xxBru and HIV-1M184Vpin were obtained from Dr. John Mellors (University of Pittsburgh). Infections were done in bulk for one hour, either with 100 TCID50/1×10^7 cells for a flask (T25) assay or with 200 TCID50/6×10^5 cells/well for a 24 well plate assay. Cells were added to a plate or flask containing a ten-fold serial dilution of the test compound. Assay medium was RPMI-1640 supplemented with heat inactivated 16% fetal bovine serum, 1.6 mM L-glutamine, 80 IU/ml penicillin, 80 μg/ml streptomycin, 0.0008% DEAE-Dextran, 0.045% sodium bicarbonate, and 26 IU/ml recombinant interleukin-2 (Chiron Corp, Emeryville, Calif.). […] Untreated and uninfected PBM cells were grown in parallel at equivalent cell concentrations as controls. The cell cultures were maintained in a humidified 5% CO2-air at 37° C. for 5 days and supernatants were collected for reverse transcriptase (RT) activity.
Supernatants were centrifuged at 12,000 rpm for 2 hours to pellet the virus. The pellet was solubilized with vortexing in 100 μl virus solubilization buffer (VSB) containing 0.5% Triton X-100, 0.8 M NaCl, 0.5 mM phenylmethylsulfonyl fluoride, 20% glycerol, and 0.05 M Tris, pH 7.8. Ten μL of each sample were added to 75 μL RT reaction mixture (0.06 M Tris, pH 7.8, 0.012 M MgCl2, 0.006 M dithiothreitol, 0.006 mg/ml poly (rA)n, oligo (dT)12-18, 96 μg/ml dATP, and 1 μM of 0.08 mCi/ml ^3H-thymidine triphosphate (Moravek Biochemicals, Brea, Calif.) and incubated at 37° C. for 2 hours. The reaction was stopped by the addition of 100 μL 10% trichloroacetic acid containing 0.05% sodium pyrophosphate. The acid insoluble product was harvested onto filter paper using a Packard Harvester (Meriden, Conn.), and the RT activity was read on a Packard Direct Beta Counter (Meriden, Conn.). The RT results were expressed in counts per minute (CPM) per milliliter.
A single mutation at residue 184 (M184V) in the catalytic domain of HIV-1 RT bring about a high-level of resistance to 3TC, causing the 50% inhibitory concentration of 3TC to be increased at least 1,000-fold (Schinazi, R. F.; Lloyd, Jr. R. M.; Nguyen, M. -H.; Cannon, D. L.; McMillan, A.; Ilksoy, N.; Chu, C. K.; Liotta, D. C.; Bazni, H. Z.; Mellors, J. W. Characterizatin of human immunodeficiency viruses resistant to oxthiolane-cytosine nucleosides. Antimicrob Agents Chemother. 1993, 37, 875-881; Tisdale, M.; Kemp, S. D.; Parry, N. R.; Larder, B. A. Rapid in vitro selection of human immunodeficiency virus type 1 resistant to 3′-thiacytidine inhibitors due to a mutation in the YMDD region of reverse transcnptase. Proc. Natl. Acad. Sci. USA 1993, 90, 5653-5656), contributing to the failure of anti-AIDS combination therapy. […] K. Synthesis and anti-HIV and anti-HBV activities of 2′-fluoro-2′,3′-unsaturated L-nucleosides.

[2] = system: β-actin gene; format: cell-based, human; conditions: human, 7 days, 10 μM
Protocol: Low passage number HepG2 cells, obtained from American Tissue Culture Collection (ATCC, Manassas, Va.) were seeded at 5,000 cells/well in collagen-coated 96-well plates. Test compounds were added to the media to obtain a final concentration of 10 μM. On culture day 7, cellular nucleic acids were prepared by using commercially available columns (RNeasy 96 kit, Qiagen). […] The mitochondrial cytochrome C oxidase subunit II (COXII) gene and the β-actin or rRNA gene were amplified from 5 μL with a multiplex Q-PCR protocol using the suitable primers and probes for both target and reference (designed using the Primer Express software, Applied Biosystems); • for COXII. • sense primer 5′-[…]-3′ (Sequence 7); • probe 5′-TET-[…]-TAMRA-3′ (Sequence 8); and • antisense probe 5′-[…]-3′ (Sequence 9); • for exon 3 of β-actin (GenBank E01094): • sense primer 5′-[…]-3′ (Sequence 10); • probe 5′-6FAM-[…]-TAMRA-3′ (Sequnece 11); and • antisense probe 5′-[…]-3′ (Sequence 12).
The rRNA gene primers and probes were purchased from Applied Biosystems. Standard curves using 1-log diluted total HepG2 DNA were linear over more than 5 logs. In addition, efficiencies of target (COXII DNA) and reference (β-actin DNA or rRNA) amplification were approximately equal, because the slope of the ΔCt line (Ct β-actin minus Ct mitochondrial) was less than 0.1 (not shown). Since equal amplification efficiencies were obtained for both genes, the comparative cycle threshold (Ct) method was used to investigate potential inhibition of the mitochondrial DNA polymerase γ. The comparative Ct method uses arithmetic formulas in which the amount of target (COXII gene) is normalized to an endogenous reference (β-actin gene or rRNA gene) and is relative to a calibrator (no drug control at day 7). The arithmetic formula for this approach is given by 2-ΔΔCt (User bulletin # 2, Applied Biosystems).
In order to study the consequences of possible inhibitory effects of these compounds on host DNA polymerases, nuclear and rnitochondrial DNA levels were quantified and compared to no-treatment controls. Cells were incubated for 7 days with 10 μM of each compound, followed by total nucleic acid extractions and multiplex Q-PCR of the rRNA gene and the mitochondrial COXII gene. Nucleic acids from cells exposed to the control compounds were also amplified in multiplex for mitDNA and the β-actin gene. The results are presented in Table 4 using the comparative Ct method.

[3] = system: HBV; assay: HBV Q-PCR in the HepG2.2.15 cell system; format: cell-based, hepatitis B virus; conditions: 10 μM, HepG2.2.15 system
[4] = Human immunodeficiency virus 1, PBMC

Cc1cn([C@H]2C[C@H](N=[N+]=[N-])[C@@H](CO)O2)c(=O)[nH]c1=O [AZT, 3′-azido-3′-deoxythymidine, reference compound]
EC90 [1, 4]: 0.003 µM
Average ΔCt ± SD β-actin DNA [2]: 0.10 ± 0.38

Nc1ccn([C@@H]2CS[C@H](CO)O2)c(=O)n1 [Compound 3TC, (−)-β-2′,3′-dideoxy-3′-thiacytidine, reference compound]
EC90 [1, 4]: 535 µM
FI, fold increase (EC90 HIV-1M184V/EC90 HIV-1xxBRU) ([1]; human PBM cells): 6,688
Average ΔCt ± SD β-actin DNA [2]: 0.11 ± 0.23
maximal reduction of HBV DNA [3]: 0.6 logs

Nc1ccn([C@@H]2S[C@H](CO)C=C2F)c(=O)n1 [Compound D-17, (−)-1-[(1S,4R)-2,3-dideoxy-2,3-didehydro-2-fluoro4-thio-β-D-ribofuranosyl]-cytosine]
FI, fold increase (EC90 HIV-1M184V/EC90 HIV-1xxBRU) ([1]; human PBM cells): 25
EC90 ([1]; human PBM cells): ~125 µM

Nc1ccn([C@H]2S[C@@H](CO)C=C2F)c(=O)n1 [Compound L-17, (+)-1-[(1S,4R)-2,3-dideoxy-2,3-didehydro-2-fluoro-4-thio-β-L-ribofuranosyl]-cytosine]
FI, fold increase (EC90 HIV-1M184V/EC90 HIV-1xxBRU) ([1]; human PBM cells): >100
EC90 ([1]; human PBM cells): > 100 µM
